Assay results as given in US9695155B2, “Herbicidal substituted pyrimidinyloxy benzene compounds” (E. I. DU PONT DE NEMOURS AND COMPANY, priority 2013, dated 2017).

How the values were obtained:
[1] = test system: morningglory; test: Test A preemergence; format: in vivo, Ipomoea spp.
Outline: (§1)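 Pre- and postemergence greenhouse screen. Soil: loam + sand. Spray carrier: solvent mixture, non-phytotoxic, with surfactant. Post timing at 1–2 leaves, height 2–10 cm. Readout: visual injury on a 0–100 scale roughly 10 days after application, untreated plants as reference.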

[2] = test system: blackgrass; test: Test C preemergence; format: in vivo, Alopecurus myosuroides; settings: Alopecurus myosuroides, pre-emergence
Outline: (§2)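 Seeds were sown in loam–sand blend and sprayed preemergence, while plants at 1- to 4-leaf stage (2–18 cm) in peat-based medium received postemergence sprays; test chemicals were formulated in a non-phytotoxic solvent with surfactant. After 13–15 days in a greenhouse, injury was rated visually against controls, 0 (no effect) to 100 (complete control).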

[3] = test system: large (Lg) crabgrass; test: Test C postemergence; format: in vivo, Digitaria sanguinalis; settings: Digitaria sanguinalis, post-emergence
Outline: as §2

[4] = test system: blackgrass; test: Test C postemergence; format: in vivo, Alopecurus myosuroides; settings: Alopecurus myosuroides, post-emergence
Outline: as §2

[5] = test system: Italian ryegrass; test: Test C preemergence; format: in vivo, Lolium multiflorum; settings: Lolium multiflorum, pre-emergence
Outline: as §2

[6] = test system: ragweed; test: Test C preemergence; format: in vivo, Ambrosia elatior; settings: Ambrosia artemisiifolia, pre-emergence
Outline: as §2

[7] = test system: morningglory; test: Test C preemergence; format: in vivo, Ipomoea coccinea; settings: Ipomoea, pre-emergence
Outline: as §2

[8] = test system: wheat; test: Test A postemergence; format: in vivo, Triticum aestivum; settings: Triticum aestivum, post-emergence, 240 h, 0 to 100 scale where 0 is no effect and 100 is complete control, read-out: Plant response rating, Wheat
Outline: as §1

[9] = test system: giant foxtail; test: Test A postemergence; format: in vivo, Setaria faberii; settings: Setaria faberi, post-emergence, 240 h, 0 to 100 scale where 0 is no effect and 100 is complete control, read-out: Plant response rating, Foxtail, Giant
Outline: as §1

[10] = test system: johnsongrass; test: Test C preemergence; format: in vivo, Sorghum halepense; settings: Sorghum halepense, pre-emergence
Outline: as §2

[11] = test system: soybean; test: Test C preemergence; format: in vivo, Glycine max; settings: Glycine max, pre-emergence
Outline: as §2

[12] = test system: barnyardgrass; test: Test C preemergence; format: in vivo, Echinochloa crus-galli; settings: Echinochloa crus-galli, pre-emergence
Outline: as §2

[13] = test system: barnyardgrass; test: Test A postemergence; format: in vivo, Echinochloa crus-galli; settings: Echinochloa crus-galli, post-emergence, 240 h
Outline: as §1

[14] = test system: oilseed rape; test: Test C preemergence; format: in vivo, Brassica napus; settings: Brassica napus, pre-emergence
Outline: as §2

[15] = test system: oilseed rape; test: Test C postemergence; format: in vivo, Brassica napus; settings: Brassica napus, post-emergence
Outline: as §2

[16] = test system: yellow nutsedge; test: Test C preemergence; format: in vivo, Cyperus esculentus; settings: Cyperus, pre-emergence
Outline: as §2

N#Cc1cccc(Oc2ncc(F)cn2)c1-n1cc(C(F)(F)F)cn1 [Compound 79, 3-[(5-fluoro-2-pyrimidinyl)oxy]-2-[4-(trifluoromethyl)-1H-pyrazol-1-yl]benzonitrile]
Plant response rating, Morningglory ([1]; 125 g ai/ha, 0 to 100 scale where 0 is no effect and 100 is complete control): 100
pest or weed control at 500 g/ha ([1]; Ipomoea, pre-emergence, 240 h, 500 g ai/ha, 0 to 100 scale, 0 no effect, 100 complete control, approx. 10 days, read-out: Morningglory plant response rating): 100%
pest or weed control at 62 g/ha ([2]; 62 g ai/ha, preemergence, scale 0 (no effect) to 100 (complete control), read-out: Blackgrass plant response rating): 90%
pest or weed control at 125 g/ha ([2]; 125 g ai/ha, preemergence, scale 0 (no effect) to 100 (complete control), read-out: Blackgrass plant response rating): 90%
pest or weed control at 250 g/ha ([2]; 250 g ai/ha, preemergence, scale 0 (no effect) to 100 (complete control), read-out: Blackgrass plant response rating): 90%
pest or weed control at 31 g/ha ([2]; Preemergence, 31 g ai/ha, scale 0 to 100, 0 no effect, 100 complete control, read-out: Plant response rating, Blackgrass): 90%
pest or weed control at 125 g/ha ([3]; 125 g ai/ha, postemergence, read-out: Plant response rating (0 to 100), Crabgrass, Large): 30%
pest or weed control at 250 g/ha ([3]; 250 g ai/ha, postemergence, read-out: Plant response rating (0 to 100), Crabgrass, Large): 65%
pest or weed control at 31 g/ha ([3]; Postemergence, 31 g ai/ha, scale 0 to 100 (0 no effect, 100 complete control), 13 to 15 days, read-out: Plant response rating, Crabgrass, Large): 20%
pest or weed control at 62 g/ha ([3]; Postemergence, 62 g ai/ha, scale 0 to 100 (0 no effect, 100 complete control), read-out: Plant response rating, Crabgrass, Large): 20%
pest or weed control at 125 g/ha ([4]; 125 g ai/ha, postemergence, read-out: Plant response rating (0 to 100), Blackgrass): 35%
pest or weed control at 250 g/ha ([4]; 250 g ai/ha, postemergence, read-out: Plant response rating (0 to 100), Blackgrass): 80%
pest or weed control at 31 g/ha ([4]; Postemergence, 31 g ai/ha, scale 0 to 100 (0 no effect, 100 complete control), 13 to 15 days, read-out: Plant response rating, Blackgrass): 10%
pest or weed control at 62 g/ha ([4]; Postemergence, 62 g ai/ha, scale 0 to 100 (0 no effect, 100 complete control), read-out: Plant response rating, Blackgrass): 30%
pest or weed control at 62 g/ha ([5]; 62 g ai/ha, preemergence, scale 0 (no effect) to 100 (complete control), read-out: Ryegrass, Italian plant response rating): 90%
pest or weed control at 125 g/ha ([5]; 125 g ai/ha, preemergence, scale 0 (no effect) to 100 (complete control), read-out: Ryegrass, Italian plant response rating): 90%
pest or weed control at 250 g/ha ([5]; 250 g ai/ha, preemergence, scale 0 (no effect) to 100 (complete control), read-out: Ryegrass, Italian plant response rating): 90%
pest or weed control at 31 g/ha ([5]; Preemergence, 31 g ai/ha, scale 0 to 100, 0 no effect, 100 complete control, read-out: Plant response rating, Ryegrass, Italian): 40%
pest or weed control at 62 g/ha ([6]; 62 g ai/ha, preemergence, scale 0 (no effect) to 100 (complete control), read-out: Ragweed plant response rating): 90%
pest or weed control at 125 g/ha ([6]; 125 g ai/ha, preemergence, scale 0 (no effect) to 100 (complete control), read-out: Ragweed plant response rating): 90%
pest or weed control at 250 g/ha ([6]; 250 g ai/ha, preemergence, scale 0 (no effect) to 100 (complete control), read-out: Ragweed plant response rating): 90%
pest or weed control at 31 g/ha ([6]; Preemergence, 31 g ai/ha, scale 0 to 100, 0 no effect, 100 complete control, read-out: Plant response rating, Ragweed): 90%
pest or weed control at 62 g/ha ([7]; 62 g ai/ha, preemergence, scale 0 (no effect) to 100 (complete control), read-out: Morningglory plant response rating): 100%
pest or weed control at 125 g/ha ([7]; 125 g ai/ha, preemergence, scale 0 (no effect) to 100 (complete control), read-out: Morningglory plant response rating): 100%
pest or weed control at 250 g/ha ([7]; 250 g ai/ha, preemergence, scale 0 (no effect) to 100 (complete control), read-out: Morningglory plant response rating): 100%
pest or weed control at 31 g/ha ([7]; Preemergence, 31 g ai/ha, scale 0 to 100, 0 no effect, 100 complete control, read-out: Plant response rating, Morningglory): 95%
plant injury at 125 g/ha ([8]; 125 g ai/ha): 80%
plant injury at 500 g/ha ([8]; 500 g ai/ha): 90%
pest or weed control at 125 g/ha ([9]; 125 g ai/ha): 100%
pest or weed control at 500 g/ha ([9]; 500 g ai/ha): 100%
pest or weed control at 62 g/ha ([10]; 62 g ai/ha, preemergence, scale 0 (no effect) to 100 (complete control), read-out: Johnsongrass plant response rating): 90%
pest or weed control at 125 g/ha ([10]; 125 g ai/ha, preemergence, scale 0 (no effect) to 100 (complete control), read-out: Johnsongrass plant response rating): 100%
pest or weed control at 250 g/ha ([10]; 250 g ai/ha, preemergence, scale 0 (no effect) to 100 (complete control), read-out: Johnsongrass plant response rating): 100%
pest or weed control at 31 g/ha ([10]; Preemergence, 31 g ai/ha, scale 0 to 100, 0 no effect, 100 complete control, read-out: Plant response rating, Johnsongrass): 75%
plant injury at 62 g/ha ([11]; 62 g ai/ha, preemergence, scale 0 (no effect) to 100 (complete control), read-out: Soybean plant response rating): 75%
plant injury at 125 g/ha ([11]; 125 g ai/ha, preemergence, scale 0 (no effect) to 100 (complete control), read-out: Soybean plant response rating): 90%
plant injury at 250 g/ha ([11]; 250 g ai/ha, preemergence, scale 0 (no effect) to 100 (complete control), read-out: Soybean plant response rating): 95%
plant injury at 31 g/ha ([11]; Preemergence, 31 g ai/ha, scale 0 to 100, 0 no effect, 100 complete control, read-out: Plant response rating, Soybean): 75%
pest or weed control at 62 g/ha ([12]; 62 g ai/ha, preemergence, scale 0 (no effect) to 100 (complete control), read-out: Barnyardgrass plant response rating): 100%
pest or weed control at 125 g/ha ([12]; 125 g ai/ha, preemergence, scale 0 (no effect) to 100 (complete control), read-out: Barnyardgrass plant response rating): 100%
pest or weed control at 250 g/ha ([12]; 250 g ai/ha, preemergence, scale 0 (no effect) to 100 (complete control), read-out: Barnyardgrass plant response rating): 100%
pest or weed control at 31 g/ha ([12]; Preemergence, 31 g ai/ha, scale 0 to 100, 0 no effect, 100 complete control, read-out: Plant response rating, Barnyardgrass): 100%
pest or weed control at 125 g/ha ([13]; 125 g ai/ha, 0 to 100 scale where 0 is no effect and 100 is complete control, read-out: Plant response rating, Barnyardgrass): 100%
pest or weed control at 500 g/ha ([13]; 500 g ai/ha, 0 to 100 scale, 0 no effect, 100 complete control, read-out: Plant response rating Barnyardgrass): 100%
plant injury at 62 g/ha ([14]; 62 g ai/ha, preemergence, scale 0 (no effect) to 100 (complete control), read-out: Oilseed Rape plant response rating): 95%
plant injury at 125 g/ha ([14]; 125 g ai/ha, preemergence, scale 0 (no effect) to 100 (complete control), read-out: Oilseed Rape plant response rating): 95%
plant injury at 250 g/ha ([14]; 250 g ai/ha, preemergence, scale 0 (no effect) to 100 (complete control), read-out: Oilseed Rape plant response rating): 95%
plant injury at 31 g/ha ([14]; Preemergence, 31 g ai/ha, scale 0 to 100, 0 no effect, 100 complete control, read-out: Plant response rating, Oilseed Rape): 90%
plant injury at 125 g/ha ([15]; 125 g ai/ha, postemergence, read-out: Plant response rating (0 to 100), Oilseed Rape): 50%
plant injury at 250 g/ha ([15]; 250 g ai/ha, postemergence, read-out: Plant response rating (0 to 100), Oilseed Rape): 90%
plant injury at 31 g/ha ([15]; Postemergence, 31 g ai/ha, scale 0 to 100 (0 no effect, 100 complete control), 13 to 15 days, read-out: Plant response rating, Oilseed Rape): 30%
plant injury at 62 g/ha ([15]; Postemergence, 62 g ai/ha, scale 0 to 100 (0 no effect, 100 complete control), read-out: Plant response rating, Oilseed Rape): 50%
pest or weed control at 62 g/ha ([16]; 62 g ai/ha, preemergence, scale 0 (no effect) to 100 (complete control), read-out: Nutsedge, Yellow plant response rating): 15%
pest or weed control at 125 g/ha ([16]; 125 g ai/ha, preemergence, scale 0 (no effect) to 100 (complete control), read-out: Nutsedge, Yellow plant response rating): 65%
pest or weed control at 250 g/ha ([16]; 250 g ai/ha, preemergence, scale 0 (no effect) to 100 (complete control), read-out: Nutsedge, Yellow plant response rating): 75%
pest or weed control at 31 g/ha ([16]; Preemergence, 31 g ai/ha, scale 0 to 100, 0 no effect, 100 complete control, read-out: Plant response rating, Nutsedge, Yellow): 10%
